The target of experiment [1] is T1, Vitamin D3 receptor (Rattus norvegicus) (UniProt P13053).
T1 sequence (whole entry): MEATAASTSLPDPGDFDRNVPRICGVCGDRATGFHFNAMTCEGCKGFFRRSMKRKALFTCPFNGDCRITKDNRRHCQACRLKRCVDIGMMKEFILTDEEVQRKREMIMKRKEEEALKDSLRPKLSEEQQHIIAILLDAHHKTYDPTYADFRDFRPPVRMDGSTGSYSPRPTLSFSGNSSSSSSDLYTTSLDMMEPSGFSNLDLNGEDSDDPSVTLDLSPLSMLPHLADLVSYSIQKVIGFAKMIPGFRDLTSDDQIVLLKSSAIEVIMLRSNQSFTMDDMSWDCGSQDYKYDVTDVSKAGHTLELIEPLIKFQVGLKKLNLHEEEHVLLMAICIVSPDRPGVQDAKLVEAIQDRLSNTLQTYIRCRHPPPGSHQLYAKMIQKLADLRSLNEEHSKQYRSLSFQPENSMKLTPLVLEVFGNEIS
Put plainly: Binding affinity for vitamin D3 receptor compared to 1,25D3 (100%).

Experiment [2] has as its target T1, Vitamin D3 receptor (Rattus norvegicus). Kind of experiment: Vitamin D3 receptor-mediated transcriptional potency in rat osteosarcoma ROS 17/2.8 cells.

Consider `C=C1/C(=C/C=C2/CCC[C@]3(C)C([C@H](C)C/C=C(/F)S(=O)(=O)C(C)(C)C)=CC[C@@H]23)CC(O)CC1O` (some centres not stated), for which the Affinity in experiment [1] was 4%. In experiment [2], this compound registered an ED50 of 4 nM.

In turn, `C=C1C(=CC=C2CCC[C@]3(C)[C@@H]([C@H](C)CCCC(C)(C)O)CC[C@@H]23)C[C@@H](O)C[C@@H]1O` registered an ED50 in experiment [2] of 0.35 nM.

Compound `C=C1/C(=C/C=C2/CCC[C@]3(C)C([C@H](C)CCS(=O)(=O)C(C)(C)C)=CC[C@@H]23)C[C@@H](O)C[C@@H]1O` displayed an Affinity in experiment [1] of 21%. The same compound displayed an ED50 in experiment [2] of 0.8 nM.

`C=C1/C(=C/C=C2/CCC[C@]3(C)C([C@H](C)CCC(F)(F)S(=O)(=O)C(C)(C)C)=CC[C@@H]23)C[C@@H](O)C[C@@H]1O` had an Affinity in experiment [1] of 7.9%. This compound showed an ED50 in experiment [2] of 0.65 nM.
